{"source": "patent US10703765B2", "about": "(priority 2014, dated 2020)", "note": "Structures can show the parent of a compound that is named as a salt.", "data": [{"molecular_target": "human σ1 receptor (Homo sapiens, UniProt Q99720)", "sequence (Q99720 whole entry)": "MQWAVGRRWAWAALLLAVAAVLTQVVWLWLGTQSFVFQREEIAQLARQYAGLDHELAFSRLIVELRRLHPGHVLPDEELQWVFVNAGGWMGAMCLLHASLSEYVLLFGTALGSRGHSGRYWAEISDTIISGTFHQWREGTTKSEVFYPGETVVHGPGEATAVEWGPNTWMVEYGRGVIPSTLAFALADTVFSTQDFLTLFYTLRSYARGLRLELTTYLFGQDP", "assay": "biochemical", "type": "binding", "set-up": "μ and σ1 dual binding: key to the marks not given beside the values", "conditions": "not given", "units": {"Ki": "nM"}, "values": [{"smiles": "Cl.O=C1COC2(CCN(CCc3ccccc3)CC2)CN1CCc1ccccn1", "note": "[Example 169, 9-phenethyl-4-(2-(pyridin-2-yl)ethyl)-1-oxa-4,9-diazaspiro[5.5]undecan-3-one hydrochloride]", "μ and σ1 dual binding": "++"}, {"smiles": "CC1OC2(CCN(CCc3cccc(NS(C)(=O)=O)c3)CC2)CN(c2ccccc2)C1=O", "note": "(stereo not shown) [Example 256, N-(3-(2-(2-methyl-3-oxo-4-phenyl-1-oxa-4,9-diazaspiro[5.5]undecan-9-yl)ethyl)phenyl)methanesulfonamide]", "Ki": "< 500"}, {"smiles": "COc1ccccc1CCN1CCC2(CC1)CN(c1ccccc1)C(=O)C(C)O2", "note": "(stereo not shown) [Example 57, 9-(2-methoxyphenethyl)-2-methyl-4-phenyl-1-oxa-4,9-diazaspiro[5.5]undecan-3-one hydrochloride]", "Ki": "< 100"}, {"smiles": "CC1OC2(CCN(CCc3cccc(NS(=O)(=O)C(C)C)c3)CC2)CN(c2ccccc2)C1=O", "note": "(stereo not shown) [Example 261, N-(3-(2-(2-methyl-3-oxo-4-phenyl-1-oxa-4,9-diazaspiro[5.5]undecan-9-yl)ethyl)phenyl)propane-2-sulfonamide hydrochloride]", "Ki": "< 500"}, {"smiles": "O=C1COC2(CCN(CCc3ccc(O)cc3)CC2)CN1c1ccccc1", "note": "[Example 290, 9-(4-hydroxyphenethyl)-4-phenyl-1-oxa-4,9-diazaspiro[5.5]undecan-3-one]", "μ and σ1 dual binding": "++"}, {"smiles": "COc1ccccc1CCN1CCC2(CC1)CN(c1ccccc1)CCO2.Cl", "note": "[Example 334, 9-(2-methoxyphenethyl)-4-phenyl-1-oxa-4,9-diazaspiro[5.5]undecane hydrochloride]", "μ and σ1 dual binding": "++"}, {"smiles": "CC1OC2(CCN(CCc3ncccc3Cl)CC2)CN(c2cnccc2C(F)(F)F)C1=O.Cl", "note": "(stereo not shown) [Example 44, 9-(2-(3-chloropyridin-2-yl)ethyl)-2-methyl-4-(4-(trifluoromethyl)pyridin-3-yl)-1-oxa-4,9-diazaspiro[5.5]undecan-3-one hydrochloride]", "μ and σ1 dual binding": "++"}, {"smiles": "CC1OC2(CCN(CCc3ccccc3)CC2)CN(c2cscn2)C1=O", "note": "(stereo not shown) [Example 88, 2-methyl-9-phenethyl-4-(thiazol-4-yl)-1-oxa-4,9-diazaspiro[5.5]undecan-3-one hydrochloride]", "Ki": "< 500"}, {"smiles": "C[C@H]1OC2(CCN(C[C@@H](O)c3ccccc3)CC2)CN(c2ccccc2)C1=O", "note": "[Example 151b, (R)-9-((S)-2-hydroxy-2-phenylethyl)-2-methyl-4-phenyl-1-oxa-4,9-diazaspiro[5.5]undecan-3-one]", "Ki": "< 500"}, {"smiles": "CC1OC2(CCN(CCc3cncc(Cl)c3)CC2)CN(c2ccccc2)C1=O", "note": "(stereo not shown) [Example 115, 9-(2-(5-chloropyridin-3-yl)ethyl)-2-methyl-4-phenyl-1-oxa-4,9-diazaspiro[5.5]undecan-3-one hydrochloride]", "Ki": "< 500"}, {"smiles": "CC1CN(CCc2cccnc2)CC2(CCN(CCc3ccccc3)CC2)O1", "note": "(stereo not shown) [Example 331, 2-methyl-9-phenethyl-4-(2-(pyridin-3-yl)ethyl)-1-oxa-4,9-diazaspiro[5.5]undecane hydrochloride]", "μ and σ1 dual binding": "++"}, {"smiles": "CC1OC2(CCN(CCc3ccccc3)CC2)CN(c2nn(C)c3ccccc23)C1=O.Cl", "note": "(stereo not shown) [Example 200, 2-methyl-4-(1-methyl-1H-indazol-3-yl)-9-phenethyl-1-oxa-4,9-diazaspiro[5.5]undecan-3-one hydrochloride]", "μ and σ1 dual binding": "++"}, {"smiles": "CC1OC2(CCN(CCc3csc(N)n3)CC2)CN(c2ccccc2F)C1=O", "note": "(stereo not shown) [Example 303, 9-(2-(2-aminothiazol-4-yl)ethyl)-4-(2-fluorophenyl)-2-methyl-1-oxa-4,9-diazaspiro[5.5]undecan-3-one]", "Ki": "< 500"}, {"smiles": "O=C1N(c2ccccc2)CC2(CCN(CC(O)c3ccccc3)CC2)OC12CC2", "note": "(stereo not shown) [Example 277, 8-(2-hydroxy-2-phenylethyl)-12-phenyl-4-oxa-8,12-diazadispiro[2.1.5.3]tridecan-13-one]", "Ki": "< 100"}, {"smiles": "CC1OC2(CCN(CCc3cccc(C(F)(F)F)n3)CC2)CN(Cc2ccc(F)cn2)C1=O.Cl", "note": "(stereo not shown) [Example 49, 4-((5-fluoropyridin-2-yl)methyl)-2-methyl-9-(2-(6-(trifluoromethyl)pyridin-2-yl)ethyl)-1-oxa-4,9-diazaspiro[5.5]undecan-3-one hydrochloride]", "μ and σ1 dual binding": "++"}]}, {"molecular_target": "human σ1 receptor (Homo sapiens, UniProt Q99720)", "assay": "biochemical", "type": "binding", "set-up": "μ and σ1 dual binding: key to the marks not given beside the values", "conditions": "combined class from Ki-σ1 (human σ1 receptor, A1) and Ki-μ (human μ-opioid receptor, A2) radioligand binding", "values": [{"smiles": "CC(C)C(=O)Nc1cccc(CCN2CCC3(CC2)CN(c2ccccc2)C(=O)C(C)O3)c1", "note": "(stereo not shown) [Example 247, N-(3-(2-(2-methyl-3-oxo-4-phenyl-1-oxa-4,9-diazaspiro[5.5]undecan-9-yl)ethyl)phenyl)isobutyramide]", "μ and σ1 dual binding": "++"}, {"smiles": "COc1cccc(N2CC3(CCN(Cc4ccccc4)CC3)OCC2=O)c1", "note": "[Example 6, 9-benzyl-4-(3-methoxyphenyl)-1-oxa-4,9-diazaspiro[5.5]undecan-3-one]", "μ and σ1 dual binding": "++"}, {"smiles": "COc1ccccc1N1CC2(CCN(CCc3ccccc3)CC2)OCC1=O", "note": "[Example 4, 4-(2-methoxyphenyl)-9-phenethyl-1-oxa-4,9-diazaspiro[5.5]undecan-3-one]", "μ and σ1 dual binding": "++"}, {"smiles": "O=C1COC2(CCN(Cc3ccccc3)C2)CN1c1ccccc1", "note": "(stereo not shown) [Example 7, 2-benzyl-9-phenyl-6-oxa-2,9-diazaspiro[4.5]decan-8-one]", "μ and σ1 dual binding": "++"}, {"smiles": "COCC1OC2(CCN(CCc3ccccc3OC)CC2)CN(c2ccccc2F)C1=O", "note": "(stereo not shown) [Example 135, 4-(2-fluorophenyl)-2-(methoxymethyl)-9-(2-methoxyphenethyl)-1-oxa-4,9-diazaspiro[5.5]undecan-3-one]", "μ and σ1 dual binding": "++"}, {"smiles": "CC1OC2(CCN(CCc3cccc(NS(N)(=O)=O)c3)CC2)CN(c2ccccc2)C1=O", "note": "(stereo not shown) [Example 265, N-[3-(2-{2-methyl-3-oxo-4-phenyl-1-oxa-4,9-diazaspiro[5.5]undecan-9-yl}ethyl)phenyl]aminosulfonamide]", "μ and σ1 dual binding": "++"}]}, {"molecular_target": "human σ1 receptor (Homo sapiens, UniProt Q99720)", "assay": "biochemical", "type": "binding", "set-up": "μ and σ1 dual binding: key to the marks not given beside the values", "conditions": "read-out: μ and σ1 dual binding", "units": {"Ki": "nM"}, "values": [{"smiles": "CC(C)C1OC2(CCN(CCc3cccnc3[N+](=O)[O-])CC2)CN(c2ccccc2F)C1=O", "note": "(stereo not shown) [Example 39, 4-(2-fluorophenyl)-2-isopropyl-9-(2-(2-nitropyridin-3-yl)ethyl)-1-oxa-4,9-diazaspiro[5.5]undecan-3-one]", "Ki": "> 500"}, {"smiles": "CC1OC2(CCN(CCc3ccccc3)CC2)CN(c2ccccc2)C1=O", "note": "(stereo not shown) [Example 9, 2-methyl-9-phenethyl-4-phenyl-1-oxa-4,9-diazaspiro[5.5]undecan-3-one]", "Ki": "< 100"}, {"smiles": "CC1OC2(CCN(CCC(=O)N(C)c3ccccc3)CC2)CN(c2ccccc2)C1=O", "note": "(stereo not shown) [Example 100, N-methyl-3-(2-methyl-3-oxo-4-phenyl-1-oxa-4,9-diazaspiro[5.5]undecan-9-yl)-N-phenylpropanamide hydrochloride]", "Ki": "< 500"}, {"smiles": "COc1ccccc1N1CC2(CCN(CCc3ccccc3)CC2)OC(C)C1=O", "note": "(stereo not shown) [Example 206, 4-(2-methoxyphenyl)-2-methyl-9-phenethyl-1-oxa-4,9-diazaspiro[5.5]undecan-3-one hydrochloride]", "Ki": "< 100"}, {"smiles": "CC1OC2(CCN(CCc3ccccc3F)CC2)CN(c2ncccc2C(F)(F)F)C1=O", "note": "(stereo not shown) [Example 221, 9-(2-fluorophenethyl)-2-methyl-4-(3-(trifluoromethyl)pyridin-2-yl)-1-oxa-4,9-diazaspiro[5.5]undecan-3-one]", "Ki": "< 500"}, {"smiles": "CC1OC2(CCN(CC(=O)N3CCOCC3)CC2)CN(c2ccccc2)C1=O", "note": "(stereo not shown) [Example 78, 2-methyl-9-(2-morpholino-2-oxoethyl)-4-phenyl-1-oxa-4,9-diazaspiro[5.5]undecan-3-one hydrochloride]", "Ki": "> 500"}, {"smiles": "CC(C)(C)OC(=O)Nc1nc(CCN2CCC3(CC2)CN(Cc2ccc(C(F)(F)F)cn2)C(=O)CO3)cs1", "note": "[Example 106, tert-butyl (4-(2-(3-oxo-4-((5-(trifluoromethyl)pyridin-2-yl)methyl)-1-oxa-4,9-diazaspiro[5.5]undecan-9-yl)ethyl)thiazol-2-yl)carbamate]", "Ki": "> 500"}, {"smiles": "COc1cccc(N2CC3(CCN(CCc4ccccc4)CC3)OC(C)C2=O)c1", "note": "(stereo not shown) [Example 15, 4-(3-methoxyphenyl)-2-methyl-9-phenethyl-1-oxa-4,9-diazaspiro[5.5]undecan-3-one hydrochloride]", "Ki": "< 500"}, {"smiles": "CC(=O)Nc1cccc(CCN2CCC3(CC2)CN(c2ccccc2)C(=O)[C@H](C)O3)c1", "note": "[Example 244a, (S)-N-(3-(2-(2-methyl-3-oxo-4-phenyl-1-oxa-4,9-diazaspiro[5.5]undecan-9-yl)ethyl)phenyl)acetamide hydrochloride]", "Ki": "< 500"}, {"smiles": "CC(C)(C)OC(=O)Nc1nc(CCN2CCC3(CC2)CN(Cc2ccc(C(F)(F)F)cn2)C(=O)C2(CC2)O3)cs1", "note": "[Example 120, tert-butyl (4-(2-(13-oxo-12-{[5-(trifluoromethyl)pyridin-2-yl]methyl}-4-oxa-8,12-diazadispiro[2.1.5.3]tridecan-8-yl)ethyl)thiazol-2-yl)carbamate]", "Ki": "> 500"}, {"smiles": "COCC1OC2(CCN(CCc3ccccc3)CC2)CN(c2ccccc2)C1=O", "note": "(stereo not shown) [Example 11, 2-(methoxymethyl)-9-phenethyl-4-phenyl-1-oxa-4,9-diazaspiro[5.5]undecan-3-one]", "Ki": "< 100"}, {"smiles": "O=C1COC2(CCN(CCc3ccccc3)CC2)CN1Cc1ccc(Cl)cn1", "note": "[Example 105, 4-((5-chloropyridin-2-yl)methyl)-9-phenethyl-1-oxa-4,9-diazaspiro[5.5]undecan-3-one hydrochloride]", "Ki": "< 100"}, {"smiles": "COc1ccc(CN2CC3(CCN(CCc4ccccc4)CC3)OC3(CC3)C2=O)cc1", "note": "[Example 109, 12-(4-methoxybenzyl)-8-phenethyl-4-oxa-8,12-diazadispiro[2.1.5.3]tridecan-13-one hydrochloride]", "Ki": "< 100"}, {"smiles": "Nc1cccc(CN2CC3(CCN(CCc4ccccc4)CC3)OCC2=O)n1", "note": "[Example 104, 4-((6-aminopyridin-2-yl)methyl)-9-phenethyl-1-oxa-4,9-diazaspiro[5.5]undecan-3-one]", "Ki": "> 500"}, {"smiles": "C=C1OC2(CCN(CCc3ccccc3)CC2)CN(c2ccccc2)C1=O", "note": "[Example 21, 2-methylene-9-phenethyl-4-phenyl-1-oxa-4,9-diazaspiro[5.5]undecan-3-one]", "Ki": "> 500"}, {"smiles": "O=C1N(c2ccccc2)CC2(CCN(CCc3ccccn3)CC2)OC12CC2", "note": "[Example 90, 12-phenyl-8-[2-(pyridin-2-yl)ethyl]-4-oxa-8,12-diazaspiro[2.1.5.3]tridecan-13-one]", "Ki": "< 100"}]}]}
